From US20250092064A1, “BENZOTRIAZOLE COMPOUND” (DAIICHI SANKYO COMPANY, LIMITED, priority 2022, published 2025)

Key:
[1] = system: NQO1 activity in Hepa1c1c7 cells; experiment: NAD(P)H: quinone oxidoreductase-1 (NQO1) enzyme induction assay (in vitro); format: cell-based, mouse; conditions: Mus musculus, Hepa-1c1c7, NQO1 activity with 400 nM test compound as a ratio from the base without compound, about 48 hr
Method in brief: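 Mouse Hepa1c1c7 hepatoma cells treated 48 hr with 400 nM compound (final). NQO1 activity in lysates read by absorbance at 610 nm; value is background-subtracted activity ratio versus untreated cells.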

[2] = molecular target: binding between Nrf2 and Keap1 (Homo sapiens (Human), UniProt Q14145); experiment: FP assay (in vitro): inhibition of Nrf2-Keap1 binding by fluorescence polarization; conditions: GST-fused human Keap1 (325-642) 20 nM, FITC-labeled Nrf2 peptide 10 nM, 2 hr at room temperature
Chain of binding between Nrf2 and Keap1 (Q14145 325-624 limits assumed): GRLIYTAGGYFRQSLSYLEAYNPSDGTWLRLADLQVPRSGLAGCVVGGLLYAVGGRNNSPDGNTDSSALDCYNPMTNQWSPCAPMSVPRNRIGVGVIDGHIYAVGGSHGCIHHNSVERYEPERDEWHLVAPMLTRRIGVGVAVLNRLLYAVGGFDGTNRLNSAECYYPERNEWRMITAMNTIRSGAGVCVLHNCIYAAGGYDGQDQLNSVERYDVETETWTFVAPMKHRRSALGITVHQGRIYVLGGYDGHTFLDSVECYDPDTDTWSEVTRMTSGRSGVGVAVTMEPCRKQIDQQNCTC

SMILES | IC50 [2] [µM] | fold induction at 0.4 µM [1]
CC[C@@H]1CN(Cc2cc([C@@H](CC(=O)O)c3cc(Cl)c4c(nnn4C)c3C)cc3ccsc23)[C@@H](C)c2ncccc2O1 [Example 70, (3R)-3-(7-Chloro-1,4-dimethyl-1H-benzotriazol-5-yl)-3-(7-{[(2R,5S)-2-ethyl-5-methyl-2,3-dihydropyrido[2,3-f][1,4]oxazepin-4(5H)-yl]methyl}-1-benzothiophen-5-yl)propanoic acid] | 0.03 to 0.1 | 3 to 5
CC[C@@H]1CN(Cc2cc(C(CC(=O)O)c3ccc4c(nnn4C)c3C)cc3ccsc23)[C@H](C)c2ncccc2O1 (stereo partly drawn) [Example 73, 3-(1,4-Dimethyl-1H-benzotriazol-5-yl)-3-(7-{[(2R,5R)-2-ethyl-5-methyl-2,3-dihydropyrido[2,3-f][1,4]oxazepin-4(5H)-yl]methyl}-1-benzothiophen-5-yl)propanoic acid] | 0.03 to 0.1 | > 5
CC[C@@H]1CN(Cc2cc([C@H](CC(=O)O)c3ccc4c(nnn4C)c3Cl)cc3ccsc23)[C@@H](C)c2ncccc2O1 [Example 74, (3S)-3-(4-Chloro-1-methyl-1H-benzotriazol-5-yl)-3-(7-{[(2R,5S)-2-ethyl-5-methyl-2,3-dihydropyrido[2,3-f][1,4]oxazepin-4(5H)-yl]methyl}-1-benzothiophen-5-yl)propanoic acid] | ≤ 0.01 | > 5
CC[C@@H]1CN(Cc2cc([C@@H](CC(=O)O)c3ccc4c(nnn4C)c3Cl)cc3ccsc23)[C@@H](C)c2ncccc2O1 [Example 75, (3R)-3-(4-Chloro-1-methyl-1H-benzotriazol-5-yl)-3-(7-{[(2R,5S)-2-ethyl-5-methyl-2,3-dihydropyrido[2,3-f][1,4]oxazepin-4(5H)-yl]methyl}-1-benzothiophen-5-yl)propanoic acid] | ≤ 0.01 | > 5
Cc1c([C@@H](CC(=O)O)c2cc(CN3C[C@@H](C)Oc4ccc(O)nc4[C@@H]3C)c3sccc3c2)ccc2c1nnn2C [Example 80, (3S)-3-(1,4-Dimethyl-1H-benzotriazol-5-yl)-3-(7-{[(2R,5S)-7-hydroxy-2,5-dimethyl-2,3-dihydropyrido[2,3-f][1,4]oxazepin-4(5H)-yl]methyl}-1-benzothiophen-5-yl)propanoic acid] | 0.01 to 0.03 | > 5
Cc1c([C@H](CC(=O)O)c2cc(CN3C[C@@H](C)Oc4ccc(O)nc4[C@@H]3C)c3sccc3c2)ccc2c1nnn2C [Example 82, (3R)-3-(1,4-Dimethyl-1H-benzotriazol-5-yl)-3-(7-{[(2R,5S)-7-hydroxy-2,5-dimethyl-2,3-dihydropyrido[2,3-f][1,4]oxazepin-4(5H)-yl]methyl}-1-benzothiophen-5-yl)propanoic acid] | 0.01 to 0.03 | > 5
CC[C@@H]1CN(Cc2cc([C@@H](c3ccc4c(nnn4C)c3C)C(C)(C)C(=O)O)cc3c2CCC3)[C@@H](C)c2ncccc2O1 [Example 89, (3S)-3-(1,4-Dimethyl-1H-benzotriazol-5-yl)-3-(7-{[(2R,5S)-2-ethyl-5-methyl-2,3-dihydropyrido[2,3-f][1,4]oxazepin-4(5H)-yl]methyl}-2,3-dihydro-1H-inden-5-yl)-2,2-dimethylpropanoic acid] | ≤ 0.01 | > 5
Cc1c(C(CC(=O)O)c2cc(CN3C[C@@H](C)Oc4ccccc4S3(=O)=O)c3cc[nH]c3c2)ccc2c1nnn2C (stereo partly drawn) [Example 90, 3-(1,4-Dimethyl-1H-benzotriazol-5-yl)-3-(4-{[(4R)-4-methyl-1,1-dioxido-3,4-dihydro-2H-5,1,2-benzoxathiazepin-2-yl]methyl}-1H-indol-6-yl)propanoic acid] | 0.01 to 0.03 | > 5
CC[C@@H]1CN(Cc2cc(C(CC(=O)O)c3ccc4c(nnn4C)c3C)cc3c2OCC3)S(=O)(=O)c2cc(Cl)cnc2O1 (stereo partly drawn) [Example 91, 3-(7-{[(4R)-8-Chloro-4-ethyl-1,1-dioxido-3,4-dihydro-2H-pyrido[2,3-b][1,4,5]oxathiazepin-2-yl]methyl}-2,3-dihydro-1-benzofuran-5-yl)-3-(1,4-dimethyl-1H-benzotriazol-5-yl)propanoic acid] | 0.01 to 0.03 | > 5
CC[C@@H]1CN(Cc2cc(C(CC(=O)O)c3ccc4c(nnn4C)c3Cl)cc3ccoc23)S(=O)(=O)c2cc(Cl)cnc2O1 (stereo partly drawn) [Example 92, 3-(7-{[(4R)-8-Chloro-4-ethyl-1,1-dioxido-3,4-dihydro-2H-pyrido[2,3-b][1,4,5]oxathiazepin-2-yl]methyl}-1-benzofuran-5-yl)-3-(4-chloro-1-methyl-1H-benzotriazol-5-yl)propanoic acid] | 0.01 to 0.03 | > 5
C[C@@H]1CN(Cc2cc(C(CC(=O)O)c3ccc4c(nnn4C)c3Cl)cc3c2CCC3)S(=O)(=O)c2ccccc2O1 (stereo partly drawn) [Example 95, 3-(4-Chloro-1-methyl-1H-benzotriazol-5-yl)-3-(7-{[(4R)-4-methyl-1,1-dioxido-3,4-dihydro-2H-5,1,2-benzoxathiazepin-2-yl]methyl}-2,3-dihydro-1H-inden-5-yl)propanoic acid] | ≤ 0.01 | > 5
CC[C@@H]1CN(Cc2cc(C(CC(=O)O)c3cc(C4CC4)c4c(nnn4C)c3C)cc3[nH]ccc23)S(=O)(=O)c2cc(Cl)cnc2O1 (stereo partly drawn) [Example 103, 3-(4-{[(4R)-8-Chloro-4-ethyl-1,1-dioxido-3,4-dihydro-2H-pyrido[2,3-b][1,4,5]oxathiazepin-2-yl]methyl}-1H-indol-6-yl)-3-(7-cyclopropyl-1,4-dimethyl-1H-benzotriazol-5-yl)propanoic acid] | ≤ 0.01 | > 5
CC[C@@H]1CN(Cc2cc(C(CC(=O)O)c3cc(C4CC4)c4c(nnn4C)c3C)cc3[nH]ccc23)[C@@H](C)c2ncccc2O1 (stereo partly drawn) [Example 104, 3-(7-Cyclopropyl-1,4-dimethyl-1H-benzotriazol-5-yl)-3-(4-{[(2R,5S)-2-ethyl-5-methyl-2,3-dihydropyrido[2,3-f][1,4]oxazepin-4(5H)-yl]methyl}-1H-indol-6-yl)propanoic acid] | 0.01 to 0.03 | > 5

More lines, main results first:

IC50 [2] [µM] | SMILES | fold induction at 0.4 µM [1]
≤ 0.01 | CC[C@@H]1CN(Cc2cc([C@H](CC(=O)O)c3cc(Cl)c4c(nnn4C)c3C)cc3c2CCC3)S(=O)(=O)c2cc(Cl)cnc2O1 [Example 96, (3S)-3-(7-Chloro-1,4-dimethyl-1H-benzotriazol-5-yl)-3-(7-{[(4R)-8-chloro-4-ethyl-1,1-dioxido-3,4-dihydro-2H-pyrido[2,3-b][1,4,5]oxathiazepin-2-yl]methyl}-2,3-dihydro-1H-inden-5-yl)propanoic acid] | > 5
≤ 0.01 | CC[C@@H]1CN(Cc2cc([C@@H](CC(=O)O)c3cc(Cl)c4c(nnn4C)c3C)cc3c2CCC3)S(=O)(=O)c2cc(Cl)cnc2O1 [Example 97, (3R)-3-(7-Chloro-1,4-dimethyl-1H-benzotriazol-5-yl)-3-(7-{[(4R)-8-chloro-4-ethyl-1,1-dioxido-3,4-dihydro-2H-pyrido[2,3-b][1,4,5]oxathiazepin-2-yl]methyl}-2,3-dihydro-1H-inden-5-yl)propanoic acid] | > 5
≤ 0.01 | CC[C@@H]1CN(Cc2cc([C@@H](CC(=O)O)c3cc(OC(F)F)c4c(nnn4C)c3C)cc3c2CCC3)S(=O)(=O)c2cc(Cl)cnc2O1 [Example 98, (3R)-3-(7-{[(4R)-8-Chloro-4-ethyl-1,1-dioxido-3,4-dihydro-2H-pyrido[2,3-b][1,4,5]oxathiazepin-2-yl]methyl}-2,3-dihydro-1H-inden-5-yl)-3-[7-(difluoromethoxy)-1,4-dimethyl-1H-benzotriazol-5-yl]propanoic acid] | > 5
≤ 0.01 | CC[C@@H]1CN(Cc2cc([C@H](CC(=O)O)c3cc(OC(F)F)c4c(nnn4C)c3C)cc3c2CCC3)S(=O)(=O)c2cc(Cl)cnc2O1 [Example 99, (3S)-3-(7-{[(4R)-8-Chloro-4-ethyl-1,1-dioxido-3,4-dihydro-2H-pyrido[2,3-b][1,4,5]oxathiazepin-2-yl]methyl}-2,3-dihydro-1H-inden-5-yl)-3-[7-(difluoromethoxy)-1,4-dimethyl-1H-benzotriazol-5-yl]propanoic acid] | > 5
≤ 0.01 | CC[C@@H]1CN(Cc2cc([C@H](CC(=O)O)c3cc(OC(F)(F)F)c4c(nnn4C)c3C)cc3c2CCC3)S(=O)(=O)c2cc(Cl)cnc2O1 [Example 100, (3S)-3-(7-{[(4R)-8-Chloro-4-ethyl-1,1-dioxido-3,4-dihydro-2H-pyrido[2,3-b][1,4,5]oxathiazepin-2-yl]methyl}-2,3-dihydro-1H-inden-5-yl)-3-[1,4-dimethyl-7-(trifluoromethoxy)-1H-benzotriazol-5-yl]propanoic acid] | > 5
≤ 0.01 | CC[C@@H]1CN(Cc2cc([C@@H](CC(=O)O)c3cc(OC(F)(F)F)c4c(nnn4C)c3C)cc3c2CCC3)S(=O)(=O)c2cc(Cl)cnc2O1 [Example 101, (3R)-3-(7-{[(4R)-8-Chloro-4-ethyl-1,1-dioxido-3,4-dihydro-2H-pyrido[2,3-b][1,4,5]oxathiazepin-2-yl]methyl}-2,3-dihydro-1H-inden-5-yl)-3-[1,4-dimethyl-7-(trifluoromethoxy)-1H-benzotriazol-5-yl]propanoic acid] | > 5
≤ 0.01 | CC[C@@H]1CN(Cc2cc(C(CC(=O)O)c3cc(C4CC4)c4c(nnn4C)c3C)cc3c2OCC3)S(=O)(=O)c2cc(Cl)cnc2O1 (stereo partly drawn) [Example 102, 3-(7-{[(4R)-8-Chloro-4-ethyl-1,1-dioxido-3,4-dihydro-2H-pyrido[2,3-b][1,4,5]oxathiazepin-2-yl]methyl}-2,3-dihydro-1-benzofuran-5-yl)-3-(7-cyclopropyl-1,4-dimethyl-1H-benzotriazol-5-yl)propanoic acid] | > 5
